Each block holds one compound with its values, some of them ahead of it.
Key:
[1] = tested on: A2 adenosine receptor (guinea pig taenia caecum); experiment: Antagonism of adenosine agonists in isolated guinea pig taenia caecum (contractile tone); settings: for antagonism of adenosine agonists in taenia caecum: guinea pig taenia caecum relaxation; for sensitization of the tissue: guinea pig taenia caecum, high concentrations
Description: Taenia from the guinea pig caecum were cut into lengths of 1.5-2 cm. The tissues were suspended in a 20 ml organ bath containing de Jalon's solution that was gassed with 95% O2 + 5% CO2 and maintained at 31° C. The resting tension was 1.5 g. The contractile response was measured isotonically.
(§1) The ability of the compounds to antagonize the effects of agonists was analyzed using modified Schild plots.

[2] = molecular target: T1, A1 adenosine receptor (guinea pig atrium) (Cavia porcellus, UniProt P47745); experiment: Antagonism of adenosine agonists in isolated guinea pig left atrium (force of contraction); settings: for antagonism of adenosine agonists in atria / basal force of contraction in the atria: guinea pig atria; for antagonism of adenosine agonists in atria: result in words
T1 construct: The left atria from male guinea pigs were isolated; from tissue; host or cells: left atria of male guinea pigs
T1 sequence (P47745 1-326): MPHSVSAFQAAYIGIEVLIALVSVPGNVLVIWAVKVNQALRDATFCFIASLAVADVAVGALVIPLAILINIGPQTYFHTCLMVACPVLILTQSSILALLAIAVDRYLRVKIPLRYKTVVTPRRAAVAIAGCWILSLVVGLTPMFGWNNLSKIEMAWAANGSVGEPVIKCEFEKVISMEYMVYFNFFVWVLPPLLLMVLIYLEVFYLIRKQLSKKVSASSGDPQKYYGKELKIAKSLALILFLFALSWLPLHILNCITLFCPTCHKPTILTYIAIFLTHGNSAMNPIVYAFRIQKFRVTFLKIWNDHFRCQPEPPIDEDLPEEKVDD
Description: The left atria from male guinea pigs were isolated, suspended between two punctate electrodes, and placed in a 20 ml organ bath that contained Krebs-Hensileit solution that was continuously gassed with 95% O2 + 5% CO2 and maintained at 31° C. The resting tension was one gram. Theatria were stimulated electrically at 1 hz, 1 ms duration pulses at supramaximal voltage. The force of contraction was recorded isometrically.
as §1

[3] = tested on: adenosine receptors (A1: heart rate; A2: blood pressure); experiment: In vivo test on heart rate, blood pressure and ECG in anesthetized rats; parameters: species or system rat
From the text: Drug injections were made intravenously through a jugular cannula.

[4] = tested on: A2 receptors of PC12 cells; settings: cited from earlier work
[5] = molecular target: A2 receptors of human platelets (Homo sapiens, UniProt P29274); experiment: Antagonism of NECA-induced stimulation of adenylate cyclase activity of human platelet membranes; type: biochemical; settings: for antagonist potency at platelet A2 receptor: human platelet membranes, NECA-stimulated adenylate cyclase, result in words; for potency at platelet A2 receptor relative to PC12 A2 receptor: human platelets versus rat PC12 cells
Description: (§2) Human platelet, rat pheochromocytoma (PC12) cell, rat fat cell and rat cerebral cortex membranes were prepared as described (4,5,6). Adenylate cyclase activity and binding [^3 H]PIA to cerebral cortex membranes were determined essentially as described (4,5,6). KB values for the compounds were determined as described (4). […] EC50 and IC50 values for the agonists were obtained from the concentration-response curves by linear regression after logit-log transformation. KB values of the antagonists were calculated using the Schild equation KB =C/(CR-1), where C denotes the concentration of the competitor and CR the ratio of the EC50 and IC50 values in the presence and absence, respectively, of the competitor. IC50 of the compounds for inhibition of [^3 H]PIA binding to cerebral cortex membranes were transformed into Ki values as described (6).
In these cells, A2 receptor-mediated stimulation of adenylate cyclase results in an inhibition of aggregation (5,7).

[6] = molecular target: T2, A1 receptors of rat fat cells (Rattus norvegicus, UniProt P25099); experiment: Antagonism of R-PIA-induced inhibition of rat fat cell adenylate cyclase activity; type: biochemical; settings: rat fat cell membranes, result in words
T2 sequence (P25099 1-326): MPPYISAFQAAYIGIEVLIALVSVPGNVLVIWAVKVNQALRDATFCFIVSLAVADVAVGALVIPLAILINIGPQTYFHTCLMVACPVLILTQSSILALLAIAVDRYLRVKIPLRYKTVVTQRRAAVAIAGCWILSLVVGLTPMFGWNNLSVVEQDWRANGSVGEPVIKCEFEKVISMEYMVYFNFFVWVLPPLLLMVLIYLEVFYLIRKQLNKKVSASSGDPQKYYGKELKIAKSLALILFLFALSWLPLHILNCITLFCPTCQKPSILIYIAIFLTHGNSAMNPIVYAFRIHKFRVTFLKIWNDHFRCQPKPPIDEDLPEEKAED
Description: as §2

[7] = molecular target: T3, A1 receptors (Rattus norvegicus, UniProt P25099); experiment: Activity at A1 adenosine receptors (overall, fat cells and brain membranes); type: biochemical; settings: discussion, fat cell and brain data
T3 sequence (P25099 1-326): T2 sequence (P25099 1-326)
Description: as §2

[8] = tested on: A1 and A2 adenosine receptors; experiment: Activity at adenosine receptors, A1 versus A2 selectivity (overall); type: biochemical; settings: for receptor selectivity A1 versus A2: in words; for stereoselectivity: A1 and A2 receptors
Description: as §2

[9] = tested on: A1 adenosine receptors; settings: literature; cited from earlier work

A2 receptors of human platelets, sequence (P29274 whole entry): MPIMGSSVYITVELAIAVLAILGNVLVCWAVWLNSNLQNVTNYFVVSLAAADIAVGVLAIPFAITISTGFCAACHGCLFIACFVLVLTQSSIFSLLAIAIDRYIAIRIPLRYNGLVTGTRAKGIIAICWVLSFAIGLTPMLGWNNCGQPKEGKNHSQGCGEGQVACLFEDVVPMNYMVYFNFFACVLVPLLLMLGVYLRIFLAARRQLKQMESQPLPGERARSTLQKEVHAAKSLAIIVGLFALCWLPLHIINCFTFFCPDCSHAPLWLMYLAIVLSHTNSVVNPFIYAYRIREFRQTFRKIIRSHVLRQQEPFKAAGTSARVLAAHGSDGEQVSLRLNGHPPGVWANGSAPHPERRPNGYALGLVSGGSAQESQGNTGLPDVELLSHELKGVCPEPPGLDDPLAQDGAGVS

Structure (SMILES): OC[C@H]1O[C@@H](n2cnc3c(NC4CCCCC4)ncnc32)[C@H](O)[C@@H]1O [N^6 -cyclohexyl-]
agonist potency at PC12 A2 receptors, in words [4]: more potent of the series

Structure (SMILES): COc1cc(CCNc2ncnc3c2ncn3[C@@H]2O[C@H](CO)[C@@H](O)[C@H]2O)cc(OC)c1OC [N^6-2-(3,4,5-trimethoxyphenylethyl)-]
agonist potency at PC12 A2 receptors, in words [4]: more potent of the series

Structure (SMILES): OC[C@H]1O[C@@H](n2cnc3c(NCCc4ccccc4)ncnc32)[C@H](O)[C@@H]1O [N^6-2-phenethyl-]
agonist potency at PC12 A2 receptors, in words [4]: more potent of the series

Structure (SMILES): Cn1cnc2c(Nc3ccccc3F)ncnc21 [Example 10, N^6-2-Fluorophenyl-9-MA]
antagonist potency at platelet A2 receptor [5]: increases potency
antagonist potency at platelet A2 receptor ([5]; listed as 2-fluorophenyl-): enhance activity
antagonist potency at A1 receptors of fat cells [6]: more potent than 9-methyladenine in the fat cell

Structure (SMILES): OC[C@H]1O[C@@H](n2cnc3c(NCCc4cccnc4)ncnc32)[C@H](O)[C@@H]1O [N^6-2-(3-pyridylethyl)-]
agonist potency at PC12 A2 receptors, in words [4]: more potent of the series

Structure (SMILES): C[C@@H](Cc1ccccc1)Nc1ncnc2c1ncn2C [Example 17, N^6 - -- S-1-Phenyl-2-propyl-9-MA]
stereoselectivity [8]: exhibit stereoselectivity at both A1 and A2 receptors
antagonist potency at A1 receptors of fat cells [6]: more potent than the parent compound at A1 receptors of fat cells

Structure (SMILES): CNc1ncnc2c1ncn2C [Example 7, N^6 -Methyl-9-MA]
antagonist potency at platelet A2 receptor [5]: much less potent than 9-methyladenine
activity at A1 receptors, in words [7]: reduces activity
antagonist potency at A1 receptors of fat cells [6]: less potent than 9-methyladenine

Structure (SMILES): Cn1c(=O)c2[nH]c(-c3ccccc3)nc2n(C)c1=O [Example 8-PT, 8-phenyltheophylline, reference compound]
antagonism of adenosine agonists in taenia caecum [1]: did antagonize the effects of agonists at low concentrations
sensitization of the tissue [1]: sensitization effect is also observed
receptor selectivity A1 versus A2 [8]: nonselective adenosine receptor antagonist

Structure (SMILES): CNc1ncnc2c1ncn2[C@@H]1O[C@H](CO)[C@@H](O)[C@H]1O [N^6 -methyladenosine]
affinity/activity at A1 receptors, in words [9]: low activity

Structure (SMILES): CC1(Nc2ncnc3c2ncn3[C@@H]2O[C@H](CO)[C@@H](O)[C@H]2O)CCCC1 [N^6-(1-methylcyclopentyl)adenosine]
affinity/activity at A1 receptors, in words [9]: reduced compared to N^6 -cyclopentyladenosine

Further lines, with some results ahead:

antagonism of adenosine agonists in atria [2]: competitive antagonists
antagonism of adenosine agonists in atria ([2]; listed as Ex. 22): most potent antagonist
Kb ([2]; read-out: Affinity constants (pKB) (converted)): 525 nM
Structure (SMILES): Cn1cnc2c(N[C@H]3C[C@H]4CC[C@@H]3C4)ncnc21 (relative stereo) [Example 22, N^6-(endonorbornyl)-9-MA]
antagonism of adenosine agonists in taenia caecum [1]: did not competitively antagonize the effects of adenosine agonists
sensitization of the tissue [1]: some sensitization of the tissue
cardioselectivity in vivo [3]: cardioselective adenosine receptor antagonist in vivo
effect on adenosine-induced changes of blood pressure, heart rate and P-R interval ([3]; i.v.): attenuated the effects of subsequently administered adenosine on all parameters measured
effect on adenosine-induced heart block ([3]; i.v., high doses of adenosine): substantially reduced
effect on NECA action on the heart ([3]; i.v., prior administration): attenuated the effects of NECA on the heart
effect on NECA-induced decrease in blood pressure ([3]; i.v., prior administration): minimally affecting the NECA-induced decrease in blood pressure

antagonist potency at platelet A2 receptor [5]: equipotent to 9-methyladenine
Structure (SMILES): Cn1cnc2c(Nc3ccccc3)ncnc21 [Example 9, N^6 -Phenyl-9-MA]
potency at platelet A2 receptor relative to PC12 A2 receptor [5]: more potent at the platelet A2 receptor than at the PC12 A2 receptor
antagonist potency at A1 receptors of fat cells [6]: more potent than 9-methyladenine in the fat cell

antagonist potency at platelet A2 receptor [5]: more potent than 9-methyladenine itself
receptor selectivity A1 versus A2 [8]: selective for receptors
Structure (SMILES): Cn1cnc2c(NC3CCC3)ncnc21 [Example 3, N^6 -Cyclobutyl-9-MA]
activity at A1 receptors, in words [7]: most potent of N^6 -substituted 9-methyladenines at A1 receptors
antagonist potency at A1 receptors of fat cells [6]: more potent than the parent compound 9-methyladenine

antagonist potency at platelet A2 receptor [5]: more potent than 9-methyladenine itself
receptor selectivity A1 versus A2 [8]: selective for receptors
Structure (SMILES): Cn1cnc2c(NC3CCCCC3)ncnc21 [Example 6, N^6 -Cyclohexyl-9-MA]
activity at A1 receptors, in words [7]: most potent of N^6 -substituted 9-methyladenines at A1 receptors
antagonist potency at A1 receptors of fat cells [6]: more potent than the parent compound 9-methyladenine

antagonist potency at platelet A2 receptor [5]: less potent than 9-methyladenine
antagonist potency at A1 receptors of fat cells [6]: much less potent
Structure (SMILES): Cn1cnc2c(NCCc3ccccc3)ncnc21 [Example 12, N^6-2-Phenethyl-9-MA]

antagonist potency at platelet A2 receptor [5]: less potent than 9-methyladenine
activity at A1 receptors, in words [7]: modest activity
Structure (SMILES): Cn1cnc2c(NCc3ccccc3)ncnc21 [Example 11, N^6 -Benzyl-9-MA]

antagonist potency at platelet A2 receptor [5]: somewhat more potent
antagonist potency at platelet A2 receptor ([5]; listed as 2-(3 -thienylethyl)-): enhance activity
Structure (SMILES): Cn1cnc2c(NCCc3ccsc3)ncnc21 [Example 15, N^6-2-(3-Thienylethyl)-9-MA]
antagonist potency at A1 receptors of fat cells [6]: more potent than 9-methyladenine itself in the fat cell

antagonist potency at platelet A2 receptor [5]: more potent
antagonist potency at platelet A2 receptor ([5]; listed as 3-pentyl-): enhance activity
basal force of contraction in the atria [2]: increases in basal force of contraction
antagonism of adenosine agonists in atria [2]: competitive antagonists
antagonist potency at A1 receptors of fat cells [6]: more potent than the aprent compound
Structure (SMILES): CCC(CC)Nc1ncnc2c1ncn2C [Example 8, N^6-3-Pentyl-9-MA]
antagonism of adenosine agonists in taenia caecum [1]: did not competitively antagonize the effects of adenosine agonists
sensitization of the tissue [1]: some sensitization of the tissue
potency at platelet A2 receptor relative to PC12 A2 receptor [5]: more potent at the platelet A2 receptor than at the PC12 A2 receptor

antagonist potency at platelet A2 receptor [5]: more potent than the S-isomer
antagonist potency at platelet A2 receptor ([5]; listed as R-1-phenyl-2-propyl-): enhance activity
Structure (SMILES): C[C@H](Cc1ccccc1)Nc1ncnc2c1ncn2C [Example 16, N^6 - -- R-1-Phenyl-2-propyl-9-MA]
stereoselectivity [8]: exhibit stereoselectivity at both A1 and A2 receptors
antagonist potency at A1 receptors of fat cells [6]: more potent than the parent compound at A1 receptors of fat cells

antagonist potency at platelet A2 receptor [5]: less potent than 9-methyladenine
Structure (SMILES): Cn1cnc2c(NCCc3cccnc3)ncnc21 [Example 14, N^6-2-(3-Pyridylethyl)-9-MA]

basal force of contraction in the atria [2]: increases in basal force of contraction
antagonism of adenosine agonists in atria [2]: competitive antagonists
Structure (SMILES): CCC(Cc1cccs1)Nc1ncnc2c1ncn2C (centres unmarked) [Example 23]

antagonist potency at platelet A2 receptor [5]: as potent as 9-methyladenine
receptor selectivity A1 versus A2 [8]: selectivity for A2 receptors
Structure (SMILES): COc1cc(CCNc2ncnc3c2ncn3C)cc(OC)c1OC [Example 13]

From US5066655A (priority 1989, dated 1991)
